Results: patent US11541050B2, “Pyrimidine derivatives for the treatment of viral infections” (JANSSEN SCIENCES IRELAND UC, priority 2011, dated 2023)

Experiments:
[1] = test system: human TLR7 mutant sequence comprising a deletion in the second leucine-rich repeat; assay: TLR7 cellular NFκB-luc reporter assay, mutant TLR7 with deletion in the second leucine-rich repeat; assay type: cell-based; parameters: unit not given here; settings: lowest effective concentration, TLR7 mutant with deletion in second leucine-rich repeat
Method in brief: (§1)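 HEK293 cells transiently co-transfected with CMV-driven mutant TLR7 or TLR8 plasmid plus NFκB-luc reporter, cultured 48 h at 37 °C, then exposed to compound for 6 h at 37 °C, 5% CO2. Luciferase luminescence measured; dose-response curves from quadruplicates.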

[2] = target: T1, human TLR8 (wild type sequence) (Homo sapiens, UniProt Q9NR97); assay: TLR8 cellular NFκB-luc reporter assay, wild type TLR8; assay type: cell-based; parameters: unit not given here; settings: lowest effective concentration, wild type TLR8 (compounds 1-73)
T1 construct: expressed in transfected cells; host or cells: HEK293
T1 sequence (Q9NR97 27-1041): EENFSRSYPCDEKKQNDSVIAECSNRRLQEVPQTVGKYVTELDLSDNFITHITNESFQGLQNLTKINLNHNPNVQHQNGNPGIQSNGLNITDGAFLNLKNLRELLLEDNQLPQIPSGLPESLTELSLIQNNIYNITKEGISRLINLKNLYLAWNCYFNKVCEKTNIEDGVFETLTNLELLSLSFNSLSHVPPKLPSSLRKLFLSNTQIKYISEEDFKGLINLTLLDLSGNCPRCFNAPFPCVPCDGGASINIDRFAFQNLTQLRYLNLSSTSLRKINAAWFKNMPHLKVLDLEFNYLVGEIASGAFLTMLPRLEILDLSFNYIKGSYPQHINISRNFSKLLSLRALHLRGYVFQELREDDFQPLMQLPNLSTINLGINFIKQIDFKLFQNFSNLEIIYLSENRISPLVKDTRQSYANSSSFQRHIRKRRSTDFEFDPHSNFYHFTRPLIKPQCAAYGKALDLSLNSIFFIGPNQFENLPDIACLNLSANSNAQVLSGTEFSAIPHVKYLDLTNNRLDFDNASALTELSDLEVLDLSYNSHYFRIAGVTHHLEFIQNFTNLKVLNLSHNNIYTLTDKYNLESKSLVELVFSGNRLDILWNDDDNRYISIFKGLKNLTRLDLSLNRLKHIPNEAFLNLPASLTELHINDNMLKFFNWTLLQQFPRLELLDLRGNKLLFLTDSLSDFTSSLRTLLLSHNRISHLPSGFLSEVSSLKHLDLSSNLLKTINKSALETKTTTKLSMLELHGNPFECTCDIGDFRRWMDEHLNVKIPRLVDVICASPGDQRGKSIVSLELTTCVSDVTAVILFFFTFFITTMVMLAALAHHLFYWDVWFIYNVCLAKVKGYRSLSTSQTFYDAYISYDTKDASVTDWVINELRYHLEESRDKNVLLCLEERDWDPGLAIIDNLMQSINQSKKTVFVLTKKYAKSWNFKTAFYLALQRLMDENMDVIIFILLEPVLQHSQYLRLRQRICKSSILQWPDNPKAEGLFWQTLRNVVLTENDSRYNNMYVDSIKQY
Method in brief: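 HEK293, transient transfection 48 h (CMV-TLR7/8 WT or 2nd-LRR deletion + NFκB-luc); compound 6 h, 37 °C, 5% CO2; Steady Lite luciferase; quadruplicate dose-response; LEC = conc. ≥2× above assay SD.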

[3] = test system: human TLR8 mutant sequence comprising a deletion in the second leucine-rich repeat; assay: TLR8 cellular NFκB-luc reporter assay, mutant TLR8 with deletion in the second leucine-rich repeat; assay type: cell-based; parameters: unit not given here; settings: lowest effective concentration, TLR8 mutant with deletion in second leucine-rich repeat
Method in brief: as §1

[4] = test system: HCV replicon in Huh-7 luc/neo cells; assay: Suppression of HCV replicon replication by conditioned media from compound-treated PBMC; assay type: cell-based, HCV type 1 b; settings: Hepatitis C virus, Huh-7; read-out: PBMC-HUH7_EC50
Method in brief: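 Human PBMC (≥2 donors, RPMI + 10% human AB serum, 2×10^5 cells/well) incubated overnight with compounds; supernatant transferred onto Huh-7 luc/neo HCV 1b replicon cells. After 24 h, replication read as luciferase activity. Recombinant interferon α-2a served as standard.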

[5] = test system: interferon-stimulated responsive elements (ISRE) in HEK-ISREluc cells; assay: Activation of ISRE promoter elements by conditioned media from compound-treated PBMC; assay type: cell-based, human; parameters: unit not given here; settings: conditioned media from compound-treated PBMC on HEK-ISREluc cells
Protocol: The potential of compounds to induce IFN-I was also evaluated by measuring the activation of interferon-stimulated responsive elements (ISRE) by conditioned media from PBMC. […] The plasmid pISRE-Luc from Clontech (ref. 631913) contains 5 copies of this ISRE element, followed by the firefly luciferase ORF. A HEK293 cell line stably transfected with pISRE-Luc (HEK-ISREluc) was established to profile of the conditioned PBMC cell culture media.
Briefly, PBMCs were prepared from buffy coats of at least two donors using a standard Ficoll centrifugation protocol. Isolated PBMCs were resuspended in RPMI medium supplemented with 10% human AB serum and 2×10^5 cells/well were dispensed into 384-well plates containing compounds (70 μL total volume). After overnight incubation, 10 μL of supernatant was transferred to 384-well plates containing 5×10^3 HEK-ISREluc cells/well in 30 μL (plated the day before). Following 24 hours of incubation, activation of the ISRE elements was measured by assaying luciferase activity using 40 μL/well Steady Lite Plus substrate (Perkin Elmer) and measured with ViewLux ultraHTS microplate imager (Perkin Elmer). The stimulating activity of each compound on the HEK-ISREluc cells was reported as LEC value, defined as the compound concentration applied to the PBMCs resulting in a luciferase activity at least two fold above the standard deviation of the assay. The LEC in turn indicates the degree of ISRE activation on transfer of a defined amount of PBMC culture medium. Recombinant interferon α-2a (Roferon-A) was used as a standard control compound.
For a given compound, the LEC value obtained from this assay were in the same range as the EC50 values obtained from the “suppression of HCV replication assay.” Thus, it is possible to compare the potential of compounds to induce IFN-I by PBMC, measured by either of the 2 assays.

Row | Compound | TLR7-dIRR2_LEC [1] | TLR8-wt_LEC [2] | TLR8-dIRR2_LEC [3] | EC50 [4] [nM] | HEK-ISREluc LEC [5]
1 | CCCCNc1nc(N)ncc1OCc1cc(C)no1 [Compound 26] | 0.49 | 3.90 | 1.52 | 580 | –
2 | CCCCNc1nc(N)ncc1OCCN1CCOCC1 [Compound 27] | 0.78 | 5.36 | 0.64 | 1030 | –
3 | CCCCNc1nc(N)ncc1OCCCC(N)=O [Compound 28] | 2.47 | 9.18 | 6.99 | 1750 | –
4 | CCCCNc1nc(N)ncc1OCCCC#N [Compound 29] | 1.32 | 2.86 | 1.19 | 2970 | –
5 | CCCCNc1nc(N)ncc1OCCN [Compound 30] | >25 | 6.44 | 1.16 | 9070 | –
6 | CCCCNc1nc(N)ncc1OCc1cc(-c2ccc(F)cc2)on1 [Compound 33] | 0.36 | 1.78 | 1.17 | 1480 | –
7 | CCCCNc1nc(N)ncc1OCc1cn2ccccc2n1 [Compound 34] | 0.06 | 0.83 | 0.61 | 50 | –
8 | CCCCNc1nc(N)ncc1OCc1cc(-c2ccc(OC)cc2)no1 [Compound 35] | 0.39 | 1.67 | 1.66 | 1500 | –
9 | CCCCNc1nc(N)ncc1OCc1cncn1C(C)c1ccccc1 (stereo not drawn) [Compound 37] | 0.04 | 9.22 | 5.69 | 120 | –
10 | CCCCNc1nc(N)ncc1OCc1ccccc1OC(F)(F)F [Compound 43] | 0.08 | 8.22 | 1.66 | 790 | –
11 | CCCCNc1nc(N)ncc1OCc1ccc(C(=O)OC)cc1OC [Compound 44] | 0.16 | 3.11 | 1.96 | 590 | –
12 | CCCCNc1nc(N)ncc1OCc1occc1C(=O)OC [Compound 45] | 0.17 | 0.58 | 0.40 | 170 | –
13 | CCCCNc1nc(N)ncc1OCc1ccc(C(=O)OCC)o1 [Compound 46] | 0.19 | 3.85 | 1.96 | 2510 | –
14 | CCCCNc1nc(N)ncc1OCc1occc1C(=O)OCC [Compound 47] | 0.20 | 1.87 | 0.66 | 330 | –
15 | CCCCNc1nc(N)ncc1OCc1occ(C(=O)OC)c1C(=O)OC [Compound 49] | 0.31 | 3.72 | 2.07 | 550 | –
16 | CCCCNc1nc(N)ncc1OCc1cncn1-c1ccccc1C [Compound 50] | 0.51 | >25 | >25 | 780 | –
17 | CCCCNc1nc(N)ncc1OCc1cccc(C(F)(F)F)c1 [Compound 51] | 0.58 | 3.92 | 2.09 | 500 | –
18 | CCCCNc1nc(N)ncc1OCc1cc(C)on1 [Compound 52] | 0.63 | 3.61 | 1.65 | 260 | –
19 | CCCCNc1nc(N)ncc1OCc1cc(F)c(F)cc1OC [Compound 53] | 0.64 | 3.06 | 2.15 | 600 | –
20 | CCCCNc1nc(N)ncc1OCCOCCOC [Compound 61] | 1.38 | 3.59 | 1.56 | 1910 | –
21 | CCCCNc1nc(N)ncc1OCc1ccc(C(=O)O)cc1OC [Compound 67] | 2.31 | >24.59 | >24.59 | 2430 | –
22 | CCCCNc1nc(N)ncc1OC(C)c1ccccc1 (stereo not drawn) [Compound 69] | 3.75 | 6.43 | 2.22 | 6160 | –
23 | CCCCNc1nc(N)ncc1Oc1ccccc1 [Compound 71] | >24.59 | >24.59 | >24.59 | 4960 | –
24 | CCC[C@@H](CCO)Nc1nc(N)ncc1OCc1[nH]ccc(=O)c1OC [Compound 88] | – | – | – | – | 0.050
